Data as given in patent publication US9056840B2, “Coelenterazine analogues and coelenteramide analogues” (JNC Corporation, priority 2010, dated 2015).

What was measured:
apoaequorin [1] = target: T1, apoaequorin (Aequorea victoria, UniProt P07164); experiment: Luciferase activity of semi-synthetic BFPs using coelenterazine as substrate; assay type: biochemical; conditions: Imax, 10 mM CaCl2, 10 seconds, BFP from CTMD = 100
T1 construct: purchased Chisso Corporation
Description: To confirm that semi-synthetic BFPs prepared from coelenteramide analogues and apoaequorin, which are novel fluorescent proteins having luciferase activity, the luminescence reaction was performed in the presence of calcium ions, using coelenterazine as a light emitting substrate. After 5 μl (corresponding to 1 μg protein) of a solution of semi-synthetic BFP prepared in EXAMPLE 12 was added to 100 μl of 50 mM Tris-HC 1 (pH 7.6) containing 10 mM CaCl2, 1 μl of a solution of coelenterazine (1 μg/μl) in ethanol was mixed with the solution to start the luminescence reaction. The luminescence activity was measured for 10 seconds on a luminometer luminescencer-PSN AB2200 (manufactured by Atto Co., Ltd.). The luminescence activity was determined by repeating the measurement of luminescence activity described above twice and expressed in terms of the maximum luminescence intensity (Imax) of luminescence activity.

[2] = Fluorescence spectra of coelenteramide analogue alone (absence of apoaequorin); assay type: physicochemical; conditions: analogue alone 8 μg/ml
Description: (§1) The fluorescence spectra were determined as follows. For coelenteramide analogue alone, the fluorescence was measured according to the procedures for semi-synthetic gFP and semi-synthetic BFP described in EXAMPLES 11 and 12, except for in the absence of apoaequorin, using 1 ml of 50 mM Tris-HCl (pH 7.6) containing 10 mM EDTA and 1 mM DTT or 1 ml of 50 mM Tris-HCl (pH 7.6) containing 10 mM CaCl2 and 1 mM DTT, in the final concentration of coelenteramide analogue adjusted to 8 μg/ml. The fluorescence spectra were measured at 25° C. in a quartz cell (10 mm light path length) using a Jasco FP-6500 spectrofluorometer (excitation wavelength: 337 nm, emission/excitation bandwidth: 3 nm; response: 0.5 sec, scan speed, 1000 nm/min).

apoaequorin [3] = target: T1, apoaequorin; experiment: Fluorescence spectra of semi-synthetic BFP (coelenteramide analogue + apoaequorin, CaCl2); assay type: physicochemical; conditions: 10 mM CaCl2 buffer, excitation 337 nm
Description: Semi-synthetic gFP was prepared from recombinant apoaequorin and coelenteramide analogues as follows. In 1 ml of 50 mM Tris-HC 1 (pH 7.6) containing 10 mM CaCl2 and 1 mM DTT, apoaequorin (0.2 mg) was mixed with 8 μl of a coelenteramide analogue (1 μg/μl in anhydrous methanol). The mixture was allowed to stand at 4° C. for 16 hours to prepare semi-synthetic BFP-like protein (hereinafter sometimes simply referred to as “semi-synthetic BFP”).
as §1

apoaequorin [4] = target: T1, apoaequorin; experiment: Fluorescence spectra of semi-synthetic gFP (coelenteramide analogue + apoaequorin, EDTA); assay type: physicochemical; conditions: 10 mM EDTA buffer, excitation 337 nm
Description: Semi-synthetic gFP was prepared from recombinant apoaequorin and coelenteramide analogues as follows. In 1 ml of 50 mM Tris-HC 1 (pH 7.6) containing 10 mM EDTA and 1 mM DTT, apoaequorin (0.2 mg) was mixed with 8 μl of a coelenteramide analogue (1 μg/μl in anhydrous methanol). The mixture was allowed to stand 4° C. for 16 hours to prepare semi-synthetic gFP-like protein (hereinafter sometimes simply referred to as “semi-synthetic gFP”).
as §1

[5] = 10 mM CaCl2 buffer pH 7.6, excitation 337 nm
[6] = 10 mM EDTA buffer pH 7.6, excitation 337 nm

T1 sequence (P07164 other isoform, or with tags, fused parts or gaps with the stated changes): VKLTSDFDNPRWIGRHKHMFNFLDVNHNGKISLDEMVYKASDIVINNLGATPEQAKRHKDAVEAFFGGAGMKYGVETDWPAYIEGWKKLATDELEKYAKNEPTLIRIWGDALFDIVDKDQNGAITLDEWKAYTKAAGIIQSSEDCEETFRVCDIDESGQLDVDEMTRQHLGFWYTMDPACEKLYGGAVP

Compound: O=C(Cc1ccc(O)cc1)Nc1ncc(-c2ccc(O)cc2)nc1Cc1ccccc1 [Coelenteramide]
- Luciferase activity of semi-synthetic BFP (%) (apoaequorin [1]): 100.0%
- Coelenteramide (Buffer containing CaCl2) Fluorescence intensity (rlu) [2, 5]: 5.9 rlu
- Coelenteramide (Buffer containing CaCl2) Maximum fluorescence wavelength λmax (nm) [2, 5]: 457.0 nm
- Coelenteramide (EDTA-containing buffer) Fluorescence intensity (rlu) [2, 6]: 4.6 rlu
- Coelenteramide (EDTA-containing buffer) Maximum fluorescence wavelength λmax (nm) [2, 6]: 458.0 nm
- Fluorescence intensity (apoaequorin [3]): 151.2 rlu
- Semi-synthetic BFP (Buffer containing CaCl2) Maximum fluorescence wavelength λmax (nm) (apoaequorin [3]): 468.5 nm
- Semi-synthetic gFP (EDTA-containing buffer) Fluorescence intensity (rlu) (apoaequorin [4]): 165.2 rlu
- Semi-synthetic gFP (EDTA-containing buffer) Maximum fluorescence wavelength λmax (nm) (apoaequorin [4]): 482.5 nm
